How the values were obtained:
[1] = system: P450 enzymes (oxidases) of pollen beetle homogenate; assay: Oxidase assay: 7-ethoxycoumarin O-deethylation inhibition in pollen beetle homogenate; assay type: biochemical, Meligethes aeneus; details: 3 μl of 10 mM compound, enzyme plus acetone = 100
Protocol: The ability of the novel compositions comprising the synergists of Formula (I) to inhibit P450 enzymes, a major mechanism conferring resistance to xenobiotics, was measured using pollen beetle homogenate.
Approximately 50 non-sexed adult pollen beetle from each population were homogenised on ice in 1 ml 0.1 M sodium phosphate buffer, pH 7.6, containing, 1 mM EDTA, 1 mM DTT, 1 mM PTU, 1 mM PMSF and centrifuged at 10 000×g for 10 min. The resulting supernatant was used as the enzyme source.
The O-deethylation inhibition by compounds of Example 2 or 3 was measured using 7-ethoxycoumarin (7-EC) according to Ullrich and Weber (Ullrich V and Weber P, The O-dealkylation of 7-ethoxycoumarin by liver microsomes. Z Physiol Chem 353: 1171-1177 (1972)) and adapted to the microplate format as described by DeSousa (De Sousa G, Cuany A, Brun A, Amichot M, Rahmani R, Berge J B, A microfluorometric method for measuring ethoxycoumarin-O-deethylase activity on individual Drosophila melanogaster abdomens: interest for screening resistance in insect populations Analyt. Biochem 229: 86-91 (1995)). Briefly, 7-EC was dissolved in ethanol to make a 20 mM stock solution and diluted by the addition of 0.1 M, pH 7.8 sodium phosphate buffer to give a concentration of 0.5 mM. Fifty microliters of pollen beetle enzyme were added to separate wells of a microplate, followed by the addition of 3 μl 10 mM of either compounds of Example 2 or 3 or acetone only. After 10 min incubation in room temperature, 80 μl 0.5 mM 7-EC was added following by another 5 min at 30° C. The reaction initiated by the addition of 10 μl 9.6 mM NADPH in 0.1 M sodium phosphate, pH 7.8. Enzyme activity was measured in a Victor^2 1420 multilabel counter (Wallac, Milton Keynes, UK) for 60 min with readings taken every 5 min, using an excitation wavelength of 370 nm and an emission wavelength of 460 nm. All assays were performed in triplicate.
The ability of the composition comprising the compounds of Examples 2 and 3 to inhibit oxidases derived from the 3 different pollen beetle populations is presented in Table 7.

[2] = system: pollen beetle, Meligethes aeneus; assay: Discriminating dose bioassay: α-cypermethrin in mixture with synergist; assay type: in vivo; details: for % Mortality: 24 h
Protocol: Two pyrethroid resistant populations originating from two different areas in Poland ‘Rogalin'and lebork’ were collected in July 2008. A putative susceptible population, UK population, was also collected in July 2008 in Hertfordshire, UK. All populations were collected from oilseed rape contained adults only and were kept at room temperature before assays were performed.
Bioassays incorporating the compounds (Compound of Example 2 and Compound of Example 3) dissolved in acetone, were carried out using a diagnostic concentration of α-cypermethrin derived from the above full dose response bioassays in a mixture of 0.01 g L^−1 of the compounds. The concentration of α-cypermethrin used for the discriminating dose bioassays was 0.3 ppm α-cypermethrin for the two polish populations, Rogalin and Lebork and 0.03 ppm α-cypermethrin for UK population. Vials treated with the compounds only, dissolved in acetone and acetone only were used as controls. Ten to 15 replicates were used for each treatment depending on insect numbers within the population. Compounds concentrations chosen conferred no mortality in preliminary bioassays.
Treated vials including the pollen beetles were stored in constant environment facilities at 18±2° C. and 16L: 8D. All bioassays were scored at an endpoint of 24 h after exposure to the insecticide. Insects incapable of coordinated movement (after gentle touching with a pencil brush if necessary) were scored as dead.

[3] = target: T1, purified resistance-associated esterase (E4) (Myzus persicae, UniProt P35501); assay: Esterase interference assay (indirect determination of esterase inhibition); assay type: biochemical; details: no esterase = 0%, uninhibited E4 = 100%
T1 construct: 5 g of aphids (stored at −20° C.) were homogenised in 0.02 M phosphate buffer pH 7.0; from tissue; host or cells: whole Myzus persicae aphids, clone 794JZ; homogenate purified over G-25 and DEAE Sepharose Fast Flow
T1 sequence (P35501 24-552): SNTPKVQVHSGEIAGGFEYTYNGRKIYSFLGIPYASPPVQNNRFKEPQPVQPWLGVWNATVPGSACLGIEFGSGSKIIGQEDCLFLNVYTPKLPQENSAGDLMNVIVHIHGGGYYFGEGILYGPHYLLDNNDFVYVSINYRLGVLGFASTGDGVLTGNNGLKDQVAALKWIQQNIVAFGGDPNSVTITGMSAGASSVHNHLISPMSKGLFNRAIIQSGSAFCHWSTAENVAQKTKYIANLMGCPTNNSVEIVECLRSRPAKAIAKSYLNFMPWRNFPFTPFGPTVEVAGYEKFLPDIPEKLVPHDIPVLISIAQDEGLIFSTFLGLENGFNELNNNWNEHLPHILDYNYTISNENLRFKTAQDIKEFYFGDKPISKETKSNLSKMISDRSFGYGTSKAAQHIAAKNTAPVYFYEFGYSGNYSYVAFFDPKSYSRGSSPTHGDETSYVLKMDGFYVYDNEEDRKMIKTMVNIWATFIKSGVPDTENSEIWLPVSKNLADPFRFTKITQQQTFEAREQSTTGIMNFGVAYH
Text: Measuring the in vitro inhibition is not straight forward, as synergists may bind to a site other than the active site.
The esterase used was the well-characterised resistance associated esterase purified from M. persicae, E4, (aphid clone: 794JZ) as per Devonshire (1977) with some modifications(Devonshire A L, The properties of a carboxylesterase from the peach-potato aphid, Myzus persicae (Sulz.) and its role in conferring insecticide resistance. Biochem J 167: 675-683 (1977)). Briefly, 5 g of aphids (stored at −20° C.) were homogenised in 0.02 M phosphate buffer pH 7.0 and centrifuged at 20 000 g for 10 min. The supernatant was passed through a G-25 column using 0.02M Tris/HCl, pH 8.5 buffer. Unretarded fractions containing esterase activity were further chromatographed through DEAF Sepharose Fast Flow (Amersham Biosciences) and eluted with a linear 0-0.35 M NaCl gradient in 500 ml of Tris/HCl as above. Fractions containing carboxylesterase activity in the form of E4 were concentrated, desalted, and buffer exchanged to 0.02 M phosphate pH 7.0 for storage.
Interactions of the purified resistance-associated esterase (E4) with Compound of Example 2, Compound of Example 3, Compound of Example 4, Compound of Example 9 and Compound of Example 11 were performed using the ‘esterase interference assay’, as described by Khot et al., with some modifications. Devonshire A L, The properties of a carboxylesterase from the peach-potato aphid, Myzus persicae (Sulz.) and its role in conferring insecticide resistance. Biochem J 167: 675-683 (1977)). Briefly, stock solutions of novel synergists (3 mM in acetone) were pre-incubated with pure E4, to give a final concentration of 0.03 mM, for 16 h at 4° C. Aliquots (15 μl ) of E4, E4+Compound of Example 2, E4+Compound of Example 3, E4+Compound of Example 4, E4+Compound of Example 9 and E4+Compound of Example 11 were incubated for 1 h with 60 μl of serial dilutions of azamethiphos in 0.02M phosphate buffer, pH 7, in separate wells of a NUNC microplate. Aliquots (25 p1) of house fly head homogenate (source of AChE) were added to each well and incubated for 15 minutes at room temperature. E4 in acetone and buffer only served as the positive and the negative controls respectively. AChE activity was measured at 405 nm using a Tmax kinetic microplate reader (Molecular Devices, Menlo Park, Calif.). Readings were taken automatically for 10 min at 10 s intervals. The rate (mOD min^−1) was calculated by the integrated software, Softmax Pro 4.6. All treatments were performed in triplicate.
No added esterase is giving 0% esterase protection and uninhibited esterase (E4) is giving 100% protection.
The materials and procedure as stated in Example 13, paragraphs 13.1, 13.1.2, 13.1.2.1 and 13.1.2.2. have been used and the following results have been obtained: […]

CC#CCOc1ccc2c(c1)OCO2 [Example 2, 5-(but-2-ynyloxy)-benzo[1.3]dioxole]
Inhibition of 7-ethoxycoumarin O-deethylation (%) ([1]; Lebork homogenate): −38.98%
Inhibition of 7-ethoxycoumarin O-deethylation (%) ([1]; Rogalin homogenate): −11.25%
Inhibition of 7-ethoxycoumarin O-deethylation (%) ([1]; UK population homogenate): −9.3%
% Mortality ([2]; Lebork, 0.3 ppm α-cypermethrin in mixture with 0.01 g L^−1 synergist): 85.21%
Mortality ([2]; Rogalin and Lebork, 0.3 ppm α-cypermethrin in mixture with 0.01 g L^−1 synergist): around 85%
% Mortality ([2]; Rogalin, 0.3 ppm α-cypermethrin in mixture with 0.01 g L^−1 synergist): 80.56%
% Mortality ([2]; UK population, 0.03 ppm α-cypermethrin in mixture with 0.01 g L^−1 synergist): 71.68%
Mortality with the compound only ([2]; synergist only, without α-cypermethrin (data not shown)): No mortality
Esterase protection (%) after pre-incubation with compound ([3]; Table 2 (Example 13), 0.03 mM compound pre-incubated with E4 16 h at 4° C.): 10.36%
Esterase protection (%) after pre-incubation with compound ([3]; second 'TABLE 3' (Example 16), procedure as Example 13): 10.35%
